We go through 1 molecule from the NIST ThermoML archive (doi:10.1021/je8008039).

The conditions of this series: Crystal; visual observation.

Numbers after ± are expanded uncertainties.

Consider `COc1ccc2cc([C@H](C)C(=O)O)ccc2c1` [(S)-(+)-naproxen], for which the Normal melting temperature turned out to be 155 ± 1.1 °C.
